Source: US9187471B2, “Pyrido [4,3-b] indole and pyrido [3,4-b] indole derivatives and methods of use” (Medivation Technologies, Inc., priority 2010, dated 2015)

Assays:
[1] = target: T1, human recombinant serotonin (5-Hydroxytryptamine) 5-HT7 receptor (Homo sapiens, UniProt P34969); experiment: Serotonin 5-HT7 radioligand binding ([3H]LSD); settings: compound at 0.1 μM; read-out: Inhibition of ligand binding, Serotonin 5-HT7 (percent inhibition of specific binding)
T1 construct: expressed in transfected cells; host or cells: CHO
T1 sequence (P34969 whole entry): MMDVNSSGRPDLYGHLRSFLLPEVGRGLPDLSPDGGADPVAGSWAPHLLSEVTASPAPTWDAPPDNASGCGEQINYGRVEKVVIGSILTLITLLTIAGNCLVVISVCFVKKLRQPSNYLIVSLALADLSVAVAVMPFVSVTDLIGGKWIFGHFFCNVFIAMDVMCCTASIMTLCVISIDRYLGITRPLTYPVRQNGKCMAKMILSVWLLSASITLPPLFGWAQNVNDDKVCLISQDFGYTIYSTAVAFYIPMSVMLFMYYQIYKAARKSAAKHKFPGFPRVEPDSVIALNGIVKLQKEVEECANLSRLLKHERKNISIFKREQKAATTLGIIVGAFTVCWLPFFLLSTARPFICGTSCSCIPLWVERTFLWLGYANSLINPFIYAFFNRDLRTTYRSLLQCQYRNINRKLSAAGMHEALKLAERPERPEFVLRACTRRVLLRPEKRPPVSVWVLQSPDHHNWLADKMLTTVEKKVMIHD
Method: Lysergic acid diethylamide (LSD) for 120 min. at 25° C. […] Receptor proteins were filtered and washed, the filters were then counted to determine [^3H]LSD specifically bound.

[2] = target: T2, human recombinant serotonin (5-Hydroxytryptamine) 5-HT2A receptor (Homo sapiens, UniProt P28223); experiment: Serotonin 5-HT2A radioligand binding ([3H]Ketanserin); settings: compound at 0.1 μM; read-out: Inhibition of ligand binding, Serotonin 5-HT2A (percent inhibition of specific binding)
T2 construct: expressed in transfected cells; host or cells: CHO-K1
T2 sequence (P28223 whole entry): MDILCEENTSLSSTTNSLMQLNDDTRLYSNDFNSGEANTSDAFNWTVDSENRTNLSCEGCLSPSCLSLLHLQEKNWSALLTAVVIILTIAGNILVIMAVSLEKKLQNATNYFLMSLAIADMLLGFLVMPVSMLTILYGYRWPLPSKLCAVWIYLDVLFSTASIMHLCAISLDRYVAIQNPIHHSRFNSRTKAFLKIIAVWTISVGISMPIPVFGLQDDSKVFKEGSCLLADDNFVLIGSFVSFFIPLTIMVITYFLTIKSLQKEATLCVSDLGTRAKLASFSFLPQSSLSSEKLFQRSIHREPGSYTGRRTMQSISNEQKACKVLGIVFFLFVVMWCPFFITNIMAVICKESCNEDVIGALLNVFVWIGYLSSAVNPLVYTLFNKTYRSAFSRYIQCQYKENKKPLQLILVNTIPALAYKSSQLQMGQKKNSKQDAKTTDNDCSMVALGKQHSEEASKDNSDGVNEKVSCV
Method: Compounds of the invention were incubated with 0.5 nM [^3H]Ketanserin for 60 min at 25° C. Non-specific binding was estimated in the presence of 1 μM Mianserin. Receptor proteins were filtered and washed, the filters were then counted to determine [^3H]Ketanserin specifically bound.

[3] = target: T3, human recombinant serotonin (5-Hydroxytryptamine) 5-HT5A receptor (Homo sapiens, UniProt P47898); experiment: Serotonin 5-HT5A radioligand binding ([3H]LSD); settings: compound at 0.1 μM; read-out: Inhibition of ligand binding, Serotonin 5-HT5A (percent inhibition of specific binding)
T3 construct: expressed in transfected cells; host or cells: CHO-K1
T3 sequence (P47898 whole entry): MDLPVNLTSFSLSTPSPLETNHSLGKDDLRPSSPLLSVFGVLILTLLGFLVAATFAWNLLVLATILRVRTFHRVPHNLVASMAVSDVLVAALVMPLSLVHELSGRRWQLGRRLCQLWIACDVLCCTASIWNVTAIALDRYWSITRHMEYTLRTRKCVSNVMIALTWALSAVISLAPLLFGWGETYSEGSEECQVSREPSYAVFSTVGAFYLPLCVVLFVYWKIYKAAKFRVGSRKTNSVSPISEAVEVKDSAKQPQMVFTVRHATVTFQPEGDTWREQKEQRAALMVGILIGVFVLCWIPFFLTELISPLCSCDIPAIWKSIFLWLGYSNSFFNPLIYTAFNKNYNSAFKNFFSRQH
Method: Compounds of the invention were incubated with 1.7 nM [^3H]Lysergic acid diethylamide (LSD) for 60 min at 37° C. […] Receptor proteins were filtered and washed, the filters were counted to determine [^3H]LSD specifically bound.

[4] = target: T4, human recombinant dopamine D2L receptor (Homo sapiens, UniProt P14416); experiment: Dopamine D2L radioligand binding ([3H]Spiperone); settings: 0.16 nM [3H]Spiperone; for inhibition at 1 µM: read-out: Dopamine D2L (1 μM), percent inhibition of specific binding, compound at 1 μM
T4 construct: expressed in transfected cells; host or cells: CHO
T4 sequence (P14416 whole entry): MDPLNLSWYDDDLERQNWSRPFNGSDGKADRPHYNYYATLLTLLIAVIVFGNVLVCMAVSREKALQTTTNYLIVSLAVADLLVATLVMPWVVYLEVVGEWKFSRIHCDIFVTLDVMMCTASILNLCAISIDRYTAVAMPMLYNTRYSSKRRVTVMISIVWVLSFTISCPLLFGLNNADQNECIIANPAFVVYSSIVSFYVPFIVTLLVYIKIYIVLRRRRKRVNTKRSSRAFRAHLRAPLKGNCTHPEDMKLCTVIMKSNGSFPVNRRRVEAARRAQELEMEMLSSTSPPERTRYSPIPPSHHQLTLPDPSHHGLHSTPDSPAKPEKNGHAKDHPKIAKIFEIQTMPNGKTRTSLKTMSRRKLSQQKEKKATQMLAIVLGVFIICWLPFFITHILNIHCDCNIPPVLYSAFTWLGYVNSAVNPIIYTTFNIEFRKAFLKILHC
Method: Non-specific binding was estimated in the presence of 10 μM Haloperidol. Receptor proteins were filtered and washed, the filters were then counted to determine [^3H]Spiperone specifically bound.

Row | Compound | inhibition at 0.1 µM [1] | inhibition at 0.1 µM [2] | inhibition at 0.1 µM [3] | inhibition at 1 µM [4] | inhibition at 0.1 µM ([4]; read-out: Dopamine D2L (0.1 μM), percent inhibition of specific binding, compound at 0.1 μM)
1 | CNC(=O)c1ccc(-c2ccccc2-n2c3c(c4cc(C)ccc42)CN(C)CC3)cn1 [Compound No. 71, 5-(2-(2,8-dimethyl-3,4-dihydro-1H-pyrido[4,3-b]indol-5(2H)-yl)phenyl)-N-methylpicolinamide] | 27% | 1% | 29% | 10% | 
2 | Cc1ccc2c(c1)c1c(n2-c2cccc(-c3ccc4c(ccn4C)c3)c2)CCN(C)C1 [Compound 53, 2,8-dimethyl-5-(3-(1-methyl-1H-indol-5-yl)phenyl)-2,3,4,5-tetrahydro-1H-pyrido[4,3-b]indole] | 4% | 89% | 11% | 13% | 
3 | Cc1ccc2c(c1)c1c(n2-c2ccc(-c3ccc4c(ccn4C)c3)cn2)CCN(C)C1 [Compound No. 136, 2,8-dimethyl-5-(5-(1-methyl-1H-indol-5-yl)pyridin-2-yl)-2,3,4,5-tetrahydro-1H-pyrido[4,3-b]indole] | 26% | 98% | 50% | 15% | 
4 | Cc1ccc2c(c1)c1c(n2-c2cccc(-c3cccn3C)c2)CCN(C)C1 [Compound No. 69, 2,8-dimethyl-5-(3-(1-methyl-1H-pyrrol-2-yl)phenyl)-2,3,4,5-tetrahydro-1H-pyrido[4,3-b]indole] | 25% | 99% | 36% | 12% | 
5 | Cc1ccc2c(c1)c1c(n2-c2cccc(-c3ccc(F)nc3)c2)CCN(C)C1 [Compound 44, 5-(3-(6-fluoropyridin-3-yl)phenyl)-2,8-dimethyl-2,3,4,5-tetrahydro-1H-pyrido[4,3-b]indole] | 40% | 103% | 61% | 23% | 
6 | Cc1ccc2c(c1)c1c(n2-c2ccccc2-c2c(C)noc2C)CCN(C)C1 [Compound No. 82, 4-(2-(2,8-dimethyl-3,4-dihydro-1H-pyrido[4,3-b]indol-5(2H)-yl)phenyl)-3,5-dimethylisoxazole] | 24% | 73% | 9% | 9% | 
7 | CNC(=O)c1cc(-n2c3c(c4cc(C)ccc42)CN(C)CC3)cs1 [Compound No. 78] | 22% | 59% | 24% | 1% | 
8 | Cc1ccc2c(c1)c1c(n2-c2cccc(-c3c(C)noc3C)c2)CCN(C)C1 [Compound No. 65, 4-(3-(2,8-dimethyl-3,4-dihydro-1H-pyrido[4,3-b]indol-5(2H)-yl)phenyl)-3,5-dimethylisoxazole] | 46% | 85% | 63% | 29% | 
9 | CC(=O)Nc1ccc(-c2cccc(-n3c4c(c5cc(C)ccc53)CN(C)CC4)c2)cn1 [Compound 45, N-(5-(3-(2,8-dimethyl-3,4-dihydro-1H-pyrido[4,3-b]indol-5(2H)-yl)phenyl)pyridin-2-yl)acetamide] | 51% | 71% | 37% | 20% | 
10 | CNC(=O)c1ccc(-c2ccccc2-n2c3c(c4cc(C)ccc42)CN(C)CC3)cc1 [Compound No. 72, 2′-(2,8-dimethyl-3,4-dihydro-1H-pyrido[4,3-b]indol-5(2H)-yl)-N-methylbiphenyl-4-carboxamide] | 30% | 35% | 14% | 16% | 
11 | Cc1ccc2c(c1)c1c(n2-c2ccc3ccncc3c2)CCN(C)C1 [Compound No. 74, 5-(isoquinolin-7-yl)-2,8-dimethyl-2,3,4,5-tetrahydro-1H-pyrido[4,3-b]indole] | 2% | 34% | 21% | 56% | 
12 | Cc1ccc2c(c1)c1c(n2-c2ccc3c(c2)CCN(C=O)C3)CCN(C)C1 [Compound No. 77, 6-(2,8-dimethyl-1,2,3,4-tetrahydro-pyrido[4,3-b]indol-5-yl)-3,4-dihydro-1H-isoquinoline-2-carbaldehyde] | 35% | 36% | 21% | 14% | 
13 | Cc1ccc2c(c1)c1c(n2-c2cccc(-c3ccc(C)s3)c2)CCN(C)C1 [Compound No. 64, 2,8-dimethyl-5-(3-(5-methylthiophen-2-yl)phenyl)-2,3,4,5-tetrahydro-1H-pyrido[4,3-b]indole] | 31% | 102% | 30% | 24% | 
14 | Cc1ccc2c(c1)c1c(n2-c2ccc(-c3ccnn3C)cn2)CCN(C)C1 [Compound No. 146, 2,8-dimethyl-5-(5-(1-methyl-1H-pyrazol-5-yl)pyridin-2-yl)-2,3,4,5-tetrahydro-1H-pyrido[4,3-b]indole] | 16% | 57% | 10% | 5% | 
15 | Cc1ccc2c(c1)c1c(n2-c2cscc2-c2cnc(N(C)C)nc2)CCN(C)C1 [Compound 40] | 49% | 31% | 76% | 7% | 
16 | Cc1ccc2c(c1)c1c(n2-c2ccc(-c3c(C)noc3C)cn2)CCN(C)C1 [Compound No. 137, 4-(6-(2,8-dimethyl-3,4-dihydro-1H-pyrido[4,3-b]indol-5(2H)-yl)pyridin-3-yl)-3,5-dimethylisoxazole] | 40% | 62% | 31% | 6% | 
17 | Cc1ccc2c(c1)c1c(n2-c2cccc(-c3ccnn3C)c2)CCN(C)C1 [Compound No. 66, 2,8-dimethyl-5-(3-(1-methyl-1H-pyrazol-5-yl)phenyl)-2,3,4,5-tetrahydro-1H-pyrido[4,3-b]indole] | 32% | 90% | 36% | 24% | 
18 | Cc1ccc2c(c1)c1c(n2-c2cscc2-c2ccnn2C)CCN(C)C1 [Compound No. 150] | 88% | 53% | 65% |  | 5%
19 | Cc1ccc2c(c1)c1c(n2-c2cscc2-c2cnn(C)c2)CCN(C)C1 [Compound 30] | 94% | 92% | 77% | 4% | 
20 | Cc1ccc2c(c1)c1c(n2-c2ccccc2-c2ccnn2C)CCN(C)C1 [Compound 32] | 55% | 59% | 26% | 10% | 
21 | Cc1ccc2c(c1)c1c(n2-c2cccc3ccncc23)CCN(C)C1 [Compound 58, 5-(isoquinolin-8-yl)-2,8-dimethyl-2,3,4,5-tetrahydro-1H-pyrido[4,3-b]indole] | 69% | 70% | 33% | 11% | 
22 | Cc1ccc2c(c1)c1c(n2-c2ccc(-c3cnn(C)c3)cn2)CCN(C)C1 [Compound No. 134, 2,8-dimethyl-5-(5-(1-methyl-1H-pyrazol-4-yl)pyridin-2-yl)-2,3,4,5-tetrahydro-1H-pyrido[4,3-b]indole] | 4% | 88% | -4% | 1% | 
